For 15 compounds, IC50 and Ki results are on record in ChEMBL document CHEMBL1909046, “DrugMatrix in vitro pharmacology data”.

Each structure is given as a SMILES string.

In general, IC50 refers to the concentration that inhibits the measured activity by half.

Assay [1] can be described thus: DRUGMATRIX: Tumor Necrosis Factor (TNF), Non-Selective radioligand binding (ligand: [125I] TNF-alpha). It counts as cell membranes, Membrane. As to conditions: u-937; Not Active = under 50% inhibition at 10 µM.
Assay [2] in a line: DRUGMATRIX: Phosphodiesterase PDE4 enzyme inhibition (substrate: [3H]cAMP + cAMP). Particulars: u-937, Not Active = under 50% inhibition at 10 µM.
In assay [3] the target is cGMP-specific 3',5'-cyclic phosphodiesterase (Homo sapiens, UniProt O76074). The assay can be described thus: DRUGMATRIX: Phosphodiesterase PDE5 enzyme inhibition (substrate: [3H]cGMP + cGMP). Particulars: Not Active = under 50% inhibition at 10 µM. It counts as tissue-based, Platelet.
Assay [4] deals with Mitogen-activated protein kinase 3 (Homo sapiens, UniProt P27361). The assay is described as follows: DRUGMATRIX: Protein Serine/Threonine Kinase, ERK1 enzyme inhibition (substrate: Myelin Basic Protein). Also noted: species or system Escherichia coli. As to conditions: Not Active = under 50% inhibition at 10 µM.
Sequence of Mitogen-activated protein kinase 3 (P27361 whole entry): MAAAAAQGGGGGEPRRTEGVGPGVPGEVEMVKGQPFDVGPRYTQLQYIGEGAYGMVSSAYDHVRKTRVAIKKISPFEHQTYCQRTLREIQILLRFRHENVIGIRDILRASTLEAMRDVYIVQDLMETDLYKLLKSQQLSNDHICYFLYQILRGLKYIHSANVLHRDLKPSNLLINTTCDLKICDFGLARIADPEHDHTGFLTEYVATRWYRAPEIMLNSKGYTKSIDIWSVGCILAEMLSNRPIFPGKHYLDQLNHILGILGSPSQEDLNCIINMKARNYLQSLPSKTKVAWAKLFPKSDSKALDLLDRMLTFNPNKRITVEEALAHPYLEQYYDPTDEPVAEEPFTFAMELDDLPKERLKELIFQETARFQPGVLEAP
Assay [5] deals with Receptor tyrosine-protein kinase erbB-2 (Homo sapiens, UniProt P04626). It counts as cell-based. As to conditions: insect cells.
Sequence of Receptor tyrosine-protein kinase erbB-2 (P04626 whole entry): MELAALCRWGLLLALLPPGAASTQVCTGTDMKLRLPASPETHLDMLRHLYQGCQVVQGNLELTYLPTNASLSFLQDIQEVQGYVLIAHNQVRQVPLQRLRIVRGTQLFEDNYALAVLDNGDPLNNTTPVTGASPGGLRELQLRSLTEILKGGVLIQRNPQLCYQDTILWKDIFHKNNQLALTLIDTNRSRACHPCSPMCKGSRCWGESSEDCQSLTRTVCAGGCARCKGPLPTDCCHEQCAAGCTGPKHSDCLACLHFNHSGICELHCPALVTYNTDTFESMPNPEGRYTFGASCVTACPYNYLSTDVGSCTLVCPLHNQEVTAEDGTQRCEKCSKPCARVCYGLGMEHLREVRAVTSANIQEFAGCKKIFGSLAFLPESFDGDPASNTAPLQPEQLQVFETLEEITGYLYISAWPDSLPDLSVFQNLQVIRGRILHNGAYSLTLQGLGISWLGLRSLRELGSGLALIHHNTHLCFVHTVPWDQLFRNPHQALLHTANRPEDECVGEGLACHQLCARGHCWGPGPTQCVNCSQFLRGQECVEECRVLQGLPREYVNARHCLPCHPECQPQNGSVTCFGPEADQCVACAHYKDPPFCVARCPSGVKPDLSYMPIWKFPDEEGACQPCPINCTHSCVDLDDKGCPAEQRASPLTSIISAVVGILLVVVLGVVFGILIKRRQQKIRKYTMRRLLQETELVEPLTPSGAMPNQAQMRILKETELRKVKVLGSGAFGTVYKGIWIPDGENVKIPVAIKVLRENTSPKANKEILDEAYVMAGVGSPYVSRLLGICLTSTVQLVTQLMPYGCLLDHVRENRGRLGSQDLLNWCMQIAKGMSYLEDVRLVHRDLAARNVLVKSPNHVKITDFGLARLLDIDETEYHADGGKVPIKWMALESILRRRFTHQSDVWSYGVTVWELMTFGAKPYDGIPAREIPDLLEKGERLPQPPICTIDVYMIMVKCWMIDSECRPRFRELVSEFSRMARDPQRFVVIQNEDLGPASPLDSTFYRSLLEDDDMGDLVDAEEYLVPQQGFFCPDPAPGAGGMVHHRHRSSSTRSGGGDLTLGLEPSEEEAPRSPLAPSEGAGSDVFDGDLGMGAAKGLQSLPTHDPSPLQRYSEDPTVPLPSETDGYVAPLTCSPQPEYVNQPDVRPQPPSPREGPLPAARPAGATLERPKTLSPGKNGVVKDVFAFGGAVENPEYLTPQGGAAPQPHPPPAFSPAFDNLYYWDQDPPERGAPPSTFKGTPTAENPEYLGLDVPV
The target of assay [6] is T1, Receptor-type tyrosine-protein phosphatase C (Homo sapiens, UniProt P08575).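 Note: inhibition of CD45 enzyme activity measured using DiFMUP as substrate; in other assays of this panel Not Active means under 50% inhibition at 10 µM.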
T1 sequence (P08575 whole entry): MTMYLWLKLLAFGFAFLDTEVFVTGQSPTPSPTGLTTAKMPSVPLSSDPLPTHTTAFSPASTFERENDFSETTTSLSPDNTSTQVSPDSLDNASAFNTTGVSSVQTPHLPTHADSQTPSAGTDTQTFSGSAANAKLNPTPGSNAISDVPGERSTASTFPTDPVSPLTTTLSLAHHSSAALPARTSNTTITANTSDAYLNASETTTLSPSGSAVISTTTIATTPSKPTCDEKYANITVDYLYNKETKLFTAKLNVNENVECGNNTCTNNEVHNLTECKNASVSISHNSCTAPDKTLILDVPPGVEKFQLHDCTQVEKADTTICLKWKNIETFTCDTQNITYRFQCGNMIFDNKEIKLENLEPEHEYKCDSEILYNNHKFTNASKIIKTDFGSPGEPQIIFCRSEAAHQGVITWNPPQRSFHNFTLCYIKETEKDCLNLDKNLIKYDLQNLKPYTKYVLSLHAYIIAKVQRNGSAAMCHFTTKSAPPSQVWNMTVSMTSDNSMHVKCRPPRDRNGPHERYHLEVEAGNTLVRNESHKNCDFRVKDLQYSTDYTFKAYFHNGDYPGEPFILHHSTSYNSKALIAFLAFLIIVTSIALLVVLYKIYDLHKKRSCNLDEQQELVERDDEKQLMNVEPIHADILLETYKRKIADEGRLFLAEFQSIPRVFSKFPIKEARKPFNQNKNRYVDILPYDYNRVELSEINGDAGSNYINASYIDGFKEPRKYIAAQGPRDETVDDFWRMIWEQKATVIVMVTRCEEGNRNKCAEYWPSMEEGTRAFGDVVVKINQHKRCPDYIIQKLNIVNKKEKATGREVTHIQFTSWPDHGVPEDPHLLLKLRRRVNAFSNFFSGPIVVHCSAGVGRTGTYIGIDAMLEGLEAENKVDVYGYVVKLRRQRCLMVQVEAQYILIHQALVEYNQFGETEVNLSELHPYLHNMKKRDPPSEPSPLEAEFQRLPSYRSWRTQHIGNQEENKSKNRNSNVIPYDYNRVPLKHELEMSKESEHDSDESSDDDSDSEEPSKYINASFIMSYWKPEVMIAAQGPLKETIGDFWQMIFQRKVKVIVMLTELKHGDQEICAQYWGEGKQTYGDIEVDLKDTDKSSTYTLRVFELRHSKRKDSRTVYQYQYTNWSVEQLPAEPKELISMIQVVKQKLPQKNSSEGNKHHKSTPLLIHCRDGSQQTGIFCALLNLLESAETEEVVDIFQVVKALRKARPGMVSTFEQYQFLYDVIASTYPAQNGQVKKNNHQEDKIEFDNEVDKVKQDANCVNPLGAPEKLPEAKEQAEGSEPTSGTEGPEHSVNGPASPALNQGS
Also noted: species or system Escherichia coli.

Assay [7] has as its target T2, 5-hydroxytryptamine receptor 1A (Rattus norvegicus, UniProt P19327). Note: in other assays of this panel Not Active means under 50% inhibition at 10 µM.
T2 sequence (P19327 whole entry): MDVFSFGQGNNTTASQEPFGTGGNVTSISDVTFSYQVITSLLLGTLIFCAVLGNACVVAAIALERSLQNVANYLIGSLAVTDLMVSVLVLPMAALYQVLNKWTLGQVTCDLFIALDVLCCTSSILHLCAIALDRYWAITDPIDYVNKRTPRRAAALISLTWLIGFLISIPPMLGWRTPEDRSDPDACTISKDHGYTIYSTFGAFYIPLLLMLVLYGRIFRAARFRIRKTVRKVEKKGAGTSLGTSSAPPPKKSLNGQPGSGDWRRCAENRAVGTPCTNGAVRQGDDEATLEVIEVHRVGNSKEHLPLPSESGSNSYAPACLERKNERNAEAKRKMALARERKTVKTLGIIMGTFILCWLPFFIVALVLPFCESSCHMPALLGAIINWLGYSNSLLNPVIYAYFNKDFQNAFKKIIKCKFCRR
The format is cell membranes, CHO-K1, Membrane. Particulars: cho-k1.

As to `CC1=C(/C=C/C(C)=C/C=C/C(C)=C/C(=O)O)C(C)(C)CCC1` [TRETINOIN], the 50% inhibitory concentration (IC50) result in assay [1], in assay [2], in assay [3] (platelet), in assay [4], in assay [5] and in assay [6] was “Not Active” throughout. Besides, the IC50 entry in assay [7] is on record as “Not Active”. Moreover, the Ki entry in assay [1] and in assay [2] was “Not Active” in each case.
For `CC[C@@]1(O)C(=O)OCc2c1cc1n(c2=O)Cc2cc3c(CN(C)C)c(O)ccc3nc2-1` [TOPOTECAN], the IC50 entry in assay [1], in assay [2], in assay [3] (platelet), in assay [4], in assay [5] and in assay [6] was “Not Active” each time. The IC50 result in assay [7] is “Not Active”. Moreover, the Ki entry in assay [1] and in assay [2] was “Not Active” each time.
In the case of `O=C(OC[C@H]1O[C@@H](OC(=O)c2cc(O)c(O)c(OC(=O)c3cc(O)c(O)c(O)c3)c2)[C@H](OC(=O)c2cc(O)c(O)c(OC(=O)c3cc(O)c(O)c(O)c3)c2)[C@@H](OC(=O)c2cc(O)c(O)c(OC(=O)c3cc(O)c(O)c(O)c3)c2)[C@@H]1OC(=O)c1cc(O)c(O)c(OC(=O)c2cc(O)c(O)c(O)c2)c1)c1cc(O)c(O)c(OC(=O)c2cc(O)c(O)c(O)c2)c1` [TANNIC ACID], the half-inhibitory concentration (IC50) result in assay [1] is “Not Active”; in assay [2] (read-out: IC50) it was 1.04 µM; in assay [3] (read-out: IC50), 4.7 µM; in assay [4] (read-out: IC50), 4.05 µM; in assay [5] it was “Not Active”; in assay [6], “Not Active”. The IC50 result in assay [7] is on record as “Not Active”. Moreover, the Ki result in assay [1] was “Not Active”.
For the compound `CC(Cl)(Cl)Cl` [TRICHLOROETHANE], the IC50 result in assay [1], in assay [2], in assay [3] (platelet), in assay [4], in assay [5] and in assay [6] was “Not Active” each time. For the same compound, the concentration for half-maximal inhibition (IC50) result in assay [7] was “Not Active”. The Ki result in assay [1] and in assay [2] was “Not Active” in each case.
Consider `C=CCc1ccc2c(c1)OCO2` [SAFROLE], for which the 50% inhibitory concentration (IC50) result in assay [1], in assay [2], in assay [3] (platelet), in assay [4], in assay [5] and in assay [6] was “Not Active” each time. In assay [7], the IC50 result was “Not Active”. Also, the Ki entry in assay [1] and in assay [2] was “Not Active” throughout.
As for `O=C1CC[C@@]2(O)[C@H]3Cc4ccc(O)c5c4[C@@]2(CCN3CC2CC2)[C@H]1O5` [NALTREXONE], the half-inhibitory concentration (IC50) result in assay [1], in assay [2], in assay [3] (platelet), in assay [4], in assay [5] and in assay [6] was “Not Active” throughout. In assay [7], the 50% inhibitory concentration (IC50) entry is given as “Not Active”. Further, the Ki result in assay [1] and in assay [2] was “Not Active” in each case.
Turning to `CN1C(=O)OC(C)(C)C1=O` [TRIMETHADIONE], the IC50 result in assay [1], in assay [2], in assay [3] (platelet), in assay [4], in assay [5] and in assay [6] was “Not Active” throughout. Besides, the half-inhibitory concentration (IC50) result in assay [7] is given as “Not Active”. In addition, the Ki result in assay [1] and in assay [2] was “Not Active” each time.
`CC(O)C(=O)O` (centres undefined) [LACTIC ACID]: the IC50 result in assay [1], in assay [2], in assay [3] (platelet), in assay [4], in assay [5] and in assay [6] was “Not Active” throughout. In assay [7], the IC50 result was “Not Active”. Also, the Ki entry in assay [1] and in assay [2] was “Not Active” each time.
Take `CS(=O)(=O)c1ccc(C2=C(c3ccccc3)C(=O)OC2)cc1` [ROFECOXIB]: the half-maximal inhibitory concentration (IC50) entry in assay [1], in assay [2], in assay [3] (platelet), in assay [4], in assay [5] and in assay [6] was “Not Active” in each case. In addition, the IC50 entry in assay [7] is reported as “Not Active”. For the same compound, the Ki entry in assay [1] and in assay [2] was “Not Active” in each case.
With `C[N+]1(C)[C@@H]2C[C@@H](OC(=O)[C@H](CO)c3ccccc3)C[C@H]1[C@@H]1O[C@@H]12.[Br-]` [METHSCOPOLAMINE BROMIDE], the concentration for half-maximal inhibition (IC50) result in assay [1], in assay [2], in assay [3] (platelet), in assay [4], in assay [5] and in assay [6] was “Not Active” each time. In assay [7], the IC50 entry is listed as “Not Active”. Besides, the Ki entry in assay [1] and in assay [2] was “Not Active” throughout.
As to `Cc1nnc(NS(=O)(=O)c2ccc(N)cc2)s1` [SULFAMETHIZOLE], the IC50 entry in assay [1], in assay [2], in assay [3] (platelet), in assay [4], in assay [5] and in assay [6] was “Not Active” in each case. The IC50 result in assay [7] is on record as “Not Active”. Besides, the Ki entry in assay [1] and in assay [2] was “Not Active” in each case.
`CC(=O)O[C@]1(C(C)=O)CC[C@H]2[C@@H]3C[C@H](C)C4=CC(=O)CC[C@]4(C)[C@H]3CC[C@@]21C` [MEDROXYPROGESTERONE ACETATE]: the IC50 result in assay [1], in assay [2], in assay [3] (platelet), in assay [4], in assay [5] and in assay [6] was “Not Active” throughout. The half-maximal inhibitory concentration (IC50) entry in assay [7] is reported as “Not Active”. Moreover, the Ki result in assay [1] and in assay [2] was “Not Active” each time.
With `CC1(C)[C@H](C(=O)O)N2C(=O)C[C@H]2S1(=O)=O` [SULBACTAM], the IC50 result in assay [1], in assay [2], in assay [3] (platelet), in assay [4], in assay [5] and in assay [6] was “Not Active” each time. Besides, the IC50 result in assay [7] was “Not Active”. In addition, the Ki result in assay [1] and in assay [2] was “Not Active” each time.
With `O=C(O)c1cc(/N=N/c2ccc(S(=O)(=O)Nc3ccccn3)cc2)ccc1O` [SULFASALAZINE], the IC50 result in assay [1], in assay [2], in assay [3] (platelet), in assay [4], in assay [5] and in assay [6] was “Not Active” each time. Also, the IC50 entry in assay [7] is “Not Active”. Also, the Ki result in assay [1] and in assay [2] was “Not Active” each time.
Turning to `CCN(CC)CCNC(=O)c1cc(Cl)c(N)cc1OC` [METOCLOPRAMIDE], the IC50 result in assay [1], in assay [2], in assay [3] (platelet), in assay [4], in assay [5] and in assay [6] was “Not Active” each time. Further, the half-inhibitory concentration (IC50) result in assay [7] is reported as “Not Active”. In addition, the Ki entry in assay [1] and in assay [2] was “Not Active” throughout.
